In brackets after ≈: the same amount, converted by molar mass. Read-outs that look alike come from different tables or passages of the source. Numbered stars: 1 amine (or outer) side, 2 acyl side, 3 side chain; on linkers, the order of the positions; unused ones are H or OH. Bridge positions count the residues as written; N and C are the ends. Square brackets hold non-standard residues; d marks the D form. Peptide text beside a SMILES is read from it. * marks the point of attachment. hPhe(3-Cl-4-CF3) = N[C@@H](CCc1ccc(C(F)(F)F)c(Cl)c1)C(=O)O; X1 = CN(C(CC(=O)[*:2])C(=O)C1CCCCC1)[*:1]; Bta = N[C@@H](Cc1csc2ccccc12)C(=O)O; NMeCha = CN[C@@H](CC1CCCCC1)C(=O)O; NMeChg = CN[C@H](C(=O)O)C1CCCCC1; NMeF = CN[C@@H](Cc1ccccc1)C(=O)O; NMeI = CC[C@H](C)[C@H](NC)C(=O)O; NMeL = CN[C@@H](CC(C)C)C(=O)O; NMeV = CN[C@H](C(=O)O)C(C)C; NMeAbu = CC[C@H](NC)C(=O)O; NMeA = CN[C@@H](C)C(=O)O; Piperidide = C1CCN(*)CC1; Ac5c = NC1(C(=O)O)CCCC1; Sar = CNCC(=O)O; tBu = CC(C)(C)*
What was measured:
[1] = In vitro solubility evaluation in 50 mM phosphate buffer solution (PPB, pH 6.5), room temperature (Example 2-1); type: physicochemical; settings: 50 mM phosphate buffer pH 6.5, room temperature, shaking 24 hours, no surfactant; read-out: solubilities, PPb
Procedure: (§1) To lyophilized powder of the compound, a 50 mM phosphate buffer solution (PPB: Phosphate buffer, pH 6.5) was added, and after shaking (at room temperature, 1800 rpm, for 24 hours), the mixed solution was filtered through a filter, and the compound concentration of the filtrate was measured by LC/MS/MS. […] To the compound powder, Cremophor EL (CreEL) (manufactured by Sigma-Aldrich Co., Ltd., “Kolliphor EL”, generic name: polyoxyethylene castor oil, average number of moles of ethylene oxide added 35), Vitamin E TPGS (manufactured by Sigma-Aldrich Co., Ltd.), an aqueous solution containing 1% TW80 (manufactured by Nacalai Tesque, Inc.), an aqueous solution containing 1.5% Ploxamer 188 (manufactured by BASF SE), or an aqueous solution containing 0.5% Triton X-100 was added, the mixed solution was stirred (at room temperature, for 20 hours) with a stirrer, and then filtered through a filter, and the compound concentration of the filtrate was measured by LC/UV. Solubility (μg/mL) was calculated from the measured compound concentration. […] From the above, CreEL and Vitamin E TPGS were selected as substrates that improve solubility independently of compounds, and evaluation of oral absorbability was performed.

[2] = Solubility in the presence of a surfactant (Example 2-1); type: physicochemical; settings: room temperature, stirred 20 hours
Procedure: as §1

[3] = Evaluation of Caco-2 membrane permeability; type: in vitro ADME; settings: human, Apical FaSSIF/HBSS pH 6.0 to Basal HBSS 4% BSA pH 7.4, 180 minutes, after 18 to 24 hours preincubation, read-out: Caco2 (Papp)
Procedure: The permeability coefficient (Caco-2 Papp (cm/sec)) is calculated using a numerical expression 1.
[formula] • where dQ/dt is the permeation rate of the drug (amount of drug appearing on the Basal side per unit time), S is the total cell surface area, and C1 (0) is the concentration of drug added on the Apical side.
Caco-2 cells were cultured on 96-well Transwell for 3 weeks, then DMEM, FaSSIF (1% DMSO), and the compound were added to the Apical side, DMEM was added to the Basal side, and the cells were preincubated under 5% CO2 at 37° C. with shaking at 80 rpm for 18 to 24 hours. After the preincubation, the preincubation solutions on the Apical side and Basal side were sucked off and washed, a FaSSIF/HBSS buffer solution (1% DMSO) (pH 6.0) containing the compound was added to the Apical side, a HBSS buffer solution (4% BSA) (pH 7.4) was added to the Basal side, and measurement of membrane permeability was started. Each well was shaken under 5% CO2 at 37° C. and 80 rpm, and at 180 minutes after the start of shaking, a sample on the Basal side was collected, and the permeation amount was measured by LC/MS. From the permeation amount, the membrane permeability coefficient (Papp) was calculated. Note that the description “Caco-2 (cm/sec)” in the column in the table herein is used synonymously with “Papp (cm/sec)”.

[4] = Solubility of cyclic peptide compound in 50 mM phosphate buffer solution (pH 6.5), 37° C. (Example 3-3); type: physicochemical; settings: shaking 22 to 24 hours, read-out: solubility in 50 mM phosphate buffer solution (PPB)
Procedure: Evaluation of the solubility of the cyclic peptide compound was performed. To lyophilized powder of the compound, a 50 mM phosphate buffer solution (PPB: Phosphate buffer, pH 6.5) was added, and after shaking (at 37° C., 1800 rpm, for 22 to 24 hours), the mixed solution was filtered through a filter, and the compound concentration of the filtrate was measured by LC/MS/MS. Solubility was calculated from the measured compound concentration. The solubilities of the compounds 3, 4, 6, 7, and 8 were 11 μg/mL, 1 μg/mL, 1 μg/mL, 15 μg/mL, and 5 μg/mL, respectively.

[5] = Solubility in aqueous solution containing 0.3% or 1% Cremophor EL (Example 3-3); type: physicochemical; settings: 25° C., 22 to 24 hours
Procedure: Evaluation of the solubility of the cyclic peptide compound in the presence of a surfactant was performed. To lyophilized powder of the compound, an aqueous solution containing 0.3% or 1% Cremophor EL (CreEL) was added, and after shaking (at 25° C., 1000 rpm, for 22 to 24 hours), the mixed solution was filtered through a filter, and the compound concentration of the filtrate was measured by LC/UV. Solubility (μg/mL) was calculated from the measured compound concentration.

[6] = 0.5% Triton X-100 aqueous solution, read-out: solubilities, TritonX-100 (0.5% aqueous solution)
[7] = 1% Cremophor EL aqueous solution, read-out: solubilities, CreEL (1% aqueous solution)
[8] = 1% TW80 aqueous solution, read-out: solubilities, TW80 (1% aqueous solution)
[9] = 1% Vitamin E TPGS aqueous solution, read-out: solubilities, VitaminE TPGS (1% aqueous solution)
[10] = 1.5% Poloxamer 188 aqueous solution, read-out: solubilities, Poloxamer 188 (1.5% aqueous solution)
[11] = 0.3% Cremophor EL aqueous solution, read-out: solubility, 0.3% Cremophor EL
[12] = 1% Cremophor EL aqueous solution, read-out: solubility, 1% Cremophor EL

Structure (SMILES)	solubility at 24 h [1] [µg/mL]	solubility at 20 h [2, 6] [µg/mL]	solubility at 20 h [2, 7] [µg/mL]	solubility at 20 h [2, 8] [µg/mL]	solubility at 20 h [2, 9] [µg/mL]	solubility at 20 h [2, 10] [µg/mL]	Papp A→B at 180 min [3] [×10⁻⁶ cm/s]	solubility [4] [µg/mL]	solubility [5, 11] [µg/mL]	solubility [5, 12] [µg/mL]
CC[C@H](C)[C@@H]1NC(=O)[C@H](CC(C)C)N(C)C(=O)CC(C(=O)C2CCCCC2)N(C)C(=O)[C@H](C2CCCCC2)N(C)C(=O)C2(CCCC2)NC(=O)[C@@H]2CCCN2C(=O)[C@H](CCc2ccc(C(F)(F)F)c(Cl)c2)NC(=O)CN(C)C(=O)[C@H](CC2CCCCC2)N(C)C(=O)CN(C)C(=O)CN(C)C1=O (stereo partly shown) [Compound 1] (cyclo([Ac5c][NMeChg][X1][NMeL]I[Sar][Sar][NMeCha][Sar][hPhe(3-Cl-4-CF3)]P))	1 (≈ 0.694 µM)	743	3380	1270	3100	< 13	0.71			
CC[C@H](C)[C@H]1C(=O)N[C@@H](COC(C)(C)C)C(=O)N(C)[C@@H](Cc2ccccc2)C(=O)N(C)[C@@H](C(C)C)C(=O)N[C@H](C(=O)N2CCCCC2)CC(=O)N(C)[C@@H](C)C(=O)N(C)[C@@H](Cc2ccccc2)C(=O)N[C@@H](CC(C)C)C(=O)N(C)[C@@H](CC(C)C)C(=O)N[C@@H]([C@@H](C)O)C(=O)N(C)CC(=O)N1C [Compound 2] ([NMeA][NMeF]L[NMeL]T[Sar][NMeI]S(tBu)[NMeF][NMeV]D-Piperidide; lactam N-11)	11 (≈ 7.94 µM)	498	1050	707	1950	31	5.99			
CC(C)C[C@@H]1NC(=O)[C@H](Cc2ccccc2)N(C)C(=O)[C@@H](C(C)C)NC(=O)C[C@@H](C(=O)N2CCCCC2)NC(=O)[C@H](C(C)C)N(C)C(=O)[C@H](Cc2ccccc2)N(C)C(=O)[C@H](COC(C)(C)C)NC(=O)[C@H](CC(C)C)N(C)C(=O)CN(C)C(=O)[C@H]([C@@H](C)O)NC(=O)[C@H](CC(C)C)N(C)C1=O [Compound 3] ([dV][NMeF]L[NMeL]T[Sar][NMeL]S(tBu)[NMeF][NMeV]D-Piperidide; lactam N-11)							4.07	11 (≈ 7.86 µM)	101 (≈ 72.2 µM)	395 (≈ 282 µM)
CC(C)C[C@@H]1NC(=O)[C@H](Cc2ccccc2)N(C)C(=O)[C@H](COC(C)(C)C)NC(=O)[C@H](Cc2ccccc2)N(C)C(=O)[C@H](C)N(C)C(=O)[C@H](CC(C)C)N(C)C(=O)[C@@H](C)NC(=O)C[C@@H](C(=O)N2CCCCC2)NC(=O)[C@H](Cc2ccccc2)N(C)C(=O)[C@H]([C@@H](C)O)NC(=O)[C@H](CC(C)C)N(C)C1=O [Compound 4] ([dA][NMeL][NMeA][NMeF]S(tBu)[NMeF]L[NMeL]T[NMeF]D-Piperidide; lactam N-11)							1.45	1 (≈ 0.697 µM)	214 (≈ 149 µM)	789 (≈ 550 µM)
CC[C@H]1C(=O)N[C@@H](COC(C)(C)C)C(=O)N(C)[C@@H](Cc2ccccc2)C(=O)N(C)[C@@H](C)C(=O)N[C@H](C(=O)N2CCCCC2)CC(=O)N[C@H](CC(C)C)C(=O)N(C)[C@@H](CC(C)C)C(=O)N[C@@H](Cc2csc3ccccc23)C(=O)N(C)[C@@H](CC(C)C)C(=O)N[C@@H]([C@@H](C)O)C(=O)N(C)CC(=O)N1C [Compound 5] ([dL][NMeL][Bta][NMeL]T[Sar][NMeAbu]S(tBu)[NMeF][NMeA]D-Piperidide; lactam N-11)							1.42		295 (≈ 209 µM)	1110 (≈ 785 µM)
